Laboratory results as given in patent publication US20260207621A1 (Vividion Therapeutics, Inc., priority 2022, published 2026).

Assays:
[1] = biological target: T1, KEAP1 C151 (Homo sapiens, UniProt Q14145); assay: Nrf2 TMT measurement: in vitro TE50 for KEAP1 C151 (IA-DTB competition, targeted TMT mass spectrometry) in MDA-MB-468 cell lysate; assay type: binding; details: in vitro target engagement of KEAP1 C151, targeted TMT, read-out: KEAP1_C151 TE50
T1 construct: treating 500 μg of cell lysate generated from MDA-MB-468 breast cancer cells with DMSO or compound; endogenous in cells; host or cells: MDA-MB-468 breast cancer cell lysate
T1 sequence (Q14145 whole entry): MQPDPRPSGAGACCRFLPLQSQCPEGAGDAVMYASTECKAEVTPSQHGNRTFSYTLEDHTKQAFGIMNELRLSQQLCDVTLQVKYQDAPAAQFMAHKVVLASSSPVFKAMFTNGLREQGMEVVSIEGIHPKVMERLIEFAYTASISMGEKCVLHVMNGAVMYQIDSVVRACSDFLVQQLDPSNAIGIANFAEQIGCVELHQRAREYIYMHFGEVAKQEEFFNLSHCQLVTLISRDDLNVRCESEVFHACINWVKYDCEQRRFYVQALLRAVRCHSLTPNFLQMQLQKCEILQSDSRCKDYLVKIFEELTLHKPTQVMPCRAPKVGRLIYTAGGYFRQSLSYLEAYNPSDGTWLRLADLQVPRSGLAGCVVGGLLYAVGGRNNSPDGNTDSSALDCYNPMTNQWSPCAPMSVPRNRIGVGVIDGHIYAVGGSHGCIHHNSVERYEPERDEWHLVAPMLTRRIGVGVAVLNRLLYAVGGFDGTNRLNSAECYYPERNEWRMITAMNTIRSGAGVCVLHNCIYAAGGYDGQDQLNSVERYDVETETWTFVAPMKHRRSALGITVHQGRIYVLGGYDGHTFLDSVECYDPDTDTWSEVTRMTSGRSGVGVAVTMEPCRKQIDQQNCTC
Method in brief: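 MDA-MB-468 lysate (500 μg) treated with compound for 1 h at room temperature, then 200 μM IA-DTB for 1 h. Labeled peptides streptavidin-enriched after trypsin digest, TMT-labeled and quantified by targeted MS3 on the KEAP1 C151 peptide. IC50 from dose-response curve fitting.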

[2] = test system: Nrf2; assay: Nrf2 antagonism assay: ARE luciferase reporter in KYSE-70 cells; assay type: cell-based; details: Homo sapiens, KYSE-70, KYSE-70 cells, positive Imax corresponds to Nrf2 antagonism, read-out: KYSE70 Cellular ARE Luciferase Imax (%)
Method in brief: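 KYSE-70 esophageal squamous carcinoma cells carrying Nrf2 W24C (constitutively Nrf2-high) with an ARE-driven luciferase reporter. Loss of luciferase signal reflects Nrf2 antagonism via KEAP1 C151 engagement. IC50 and Imax come from dose-response curves; positive Imax means antagonism.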

Row | SMILES | IC50 [1] | Emax [2]
1 | C=CC(=O)N1CCOCC1c1cc(Cl)cc(-c2cc(=O)[nH]cn2)c1 (single isomer, unassigned) [Compound 94, 6-(3-(4-acryloylmorpholin-3-yl)-5-chlorophenyl)pyrimidin-4(3H)-one] | 0.016 µM | 87%
2 | C=CC(=O)N1CCOC[C@H]1c1cc(Cl)cc(-c2nc(C)cc(N)n2)c1 (single isomer, unassigned) [Compound 95] | 0.025 µM | 94%
3 | C=CC(=O)N1CCOC[C@H]1c1cc(Cl)cc(-c2nccc(N)n2)c1 (single isomer, unassigned) [Compound 96] | 0.02 µM | 94%
4 | C=CC(=O)N1CCOC[C@H]1c1cc(Cl)cc(-c2ccnc3[nH]ccc23)c1 (single isomer, unassigned) [Compound 97] | 0.023 µM | 86%
5 | C=CC(=O)N1CCOC[C@H]1c1cc(Cl)cc(-c2cccc(C)n2)c1 (single isomer, unassigned) [Compound 98] | 0.026 µM | 76%
6 | C=CC(=O)N1CCOC[C@H]1c1cc(Cl)cc(-c2cccc(OC)n2)c1 (single isomer, unassigned) [Compound 100] | 0.14 µM | 78%
7 | C=CC(=O)N1CCOC[C@H]1c1cc(Cl)cc(-c2ncc(C)cn2)c1 (single isomer, unassigned) [Compound 101] | 0.024 µM | 87%
8 | C=CC(=O)N1[C@H](C)COC[C@H]1c1cc(Cl)cc(-c2ncnc(N)n2)c1 (single isomer, unassigned) [Compound 102] | 0.0432 µM | 92%
9 | C=CC(=O)N1CCOC[C@H]1c1cc(Cl)cc(-c2ncc(OC)cn2)c1 (single isomer, unassigned) [Compound 103] | 0.017 µM | 85%
10 | C=CC(=O)N1CCOC[C@H]1c1cc(Cl)cc(-c2cc(C)ccn2)c1 (single isomer, unassigned) [Compound 104] | 0.045 µM | 91%
11 | C=CC(=O)N1CCOC[C@H]1c1cc(Cl)cc(-c2cc(OC)ccn2)c1 (single isomer, unassigned) [Compound 105] | 0.036 µM | 92%
12 | C=CC(=O)N1CCOC[C@H]1c1cc(Cl)cc(-c2ccnc(C#N)n2)c1 (single isomer, unassigned) [Compound 106] | 0.037 µM | 67%
13 | C=CC(=O)N1CCOCC1c1cc(Cl)cc(-c2cc(C(N)=O)ncn2)c1 (single isomer, unassigned) [Compound 107, 6-(3-(4-acryloylmorpholin-3-yl)-5-chlorophenyl)pyrimidine-4-carboxamide] | 0.018 µM | 92%
14 | C=CC(=O)N1CC(C)(C)OCC1c1cc(Cl)nc(-c2ccnc(C)n2)c1 (single isomer, unassigned) [Compound 120, 1-(5-(2-chloro-6-(2-methylpyrimidin-4-yl)pyridin-4-yl)-2,2-dimethylmorpholino)prop-2-en-1-one] | 0.11 µM | 77%
15 | C=CC(=O)N1CCOCC1c1cc(Cl)nc(-c2ccnc(C)n2)c1 (single isomer, unassigned) [Compound 121, 1-(3-(2-chloro-6-(2-methylpyrimidin-4-yl)pyridin-4-yl)morpholino)prop-2-en-1-one] | 0.026 µM | 82%
16 | C=CC(=O)N1CC2(CC2)OCC1c1cc(Cl)cc(-c2ccnc(C(N)=O)c2)c1 (single isomer, unassigned) [Compound 122, 4-(3-(7-acryloyl-4-oxa-7-azaspiro[2.5]octan-6-yl)-5-chlorophenyl)picolinamide] | 0.011 µM | 88%
17 | C=CC(=O)N1CCN(S(C)(=O)=O)C[C@H]1c1cc(Cl)cc(-c2ncnc(N)n2)c1 (single isomer, unassigned) [Compound 123] | 0.013 µM | 73%
18 | C=CC(=O)N1CCN(S(C)(=O)=O)C[C@H]1c1cc(Cl)cc(-c2ccnc(N)n2)c1 (single isomer, unassigned) [Compound 124] | 0.018 µM | 72%
19 | C=CC(=O)N1CCOCC1c1cc(Cl)nc(-c2cc(C(N)=O)ncn2)c1 (single isomer, unassigned) [Compound 125, 6-(4-(4-acryloylmorpholin-3-yl)-6-chloropyridin-2-yl)pyrimidine-4-carboxamide] | < 0.0064 µM | 91%
20 | C=CC(=O)N1CCOC[C@H]1c1cc(Cl)cc(-c2ccncc2)c1 (single isomer, unassigned) [Compound 126] | 0.05 µM | 72%
21 | C=CC(=O)N1CCOC[C@H]1c1cc(Cl)cc(-c2ccc(N)nn2)c1 (single isomer, unassigned) [Compound 128] | 0.12 µM | 70%
22 | C=CC(=O)N1CCOCC1c1cc(Cl)nc(-c2cc(C#N)ncn2)c1 (single isomer, unassigned) [Compound 129, 6-(4-(4-acryloylmorpholin-3-yl)-6-chloropyridin-2-yl)pyrimidine-4-carbonitrile] | 0.079 µM | 84%
23 | C=CC(=O)N1[C@H](C)COC[C@H]1c1cc(Cl)cc(-c2ncc(N)cn2)c1 (single isomer, unassigned) [Compound 130] | 0.094 µM | 89%
24 | C=CC(=O)N1[C@H](C)COC[C@H]1c1cc(Cl)cc(-c2cc(N)ncn2)c1 (single isomer, unassigned) [Compound 131] | 0.3 µM | 91%
25 | C=CC(=O)N1CCOC[C@H]1c1cc(Cl)cc(-c2cc(N)cnn2)c1 (single isomer, unassigned) [Compound 132] | < 0.0064 µM | 78%
26 | C=CC(=O)N1CC(C)(C)OC[C@H]1c1cc(Cl)cc(-c2ccnc(C(N)=O)c2)c1 (single isomer, unassigned) [Compound 133] | 0.072 µM | 85%
27 | C=CC(=O)N1[C@H](C)COC[C@H]1c1cc(Cl)cc(-c2ccnc(C(N)=O)c2)c1 (single isomer, unassigned) [Compound 134] | 0.063 µM | 85%
28 | C=CC(=O)N1CCOC[C@H]1c1cc(Cl)cc(-c2ccnc(N)c2)c1 (single isomer, unassigned) [Compound 136] | 0.052 µM | 81%
29 | C=CC(=O)N1[C@H](C)COC[C@H]1c1cc(Cl)cc(-c2ncnc3[nH]cnc23)c1 (single isomer, unassigned) [Compound 137] | 0.025 µM | 92%

Further lines, with some results ahead:

Row | IC50 [1] | SMILES | Emax [2]
30 | 0.041 µM | C=CC(=O)N1[C@H](C)COC[C@H]1c1cc(Cl)nc(-c2ccn3ccnc3c2)c1 (single isomer, unassigned) [Compound 138] | 75%
31 | 0.074 µM | C=CC(=O)N1[C@H](C)COC[C@H]1c1cc(Cl)nc(-c2ccc(F)c(C(N)=O)c2)c1 (single isomer, unassigned) [Compound 139] | 90%
32 | 0.77 µM | C=CC(=O)N1CCOCC12COc1c(-c3ccc(F)c(C(N)=O)c3)cc(Cl)cc12 (single isomer, unassigned) [Compound 143, 5-(4′-acryloyl-5-chloro-2H-spiro[benzofuran-3,3′-morpholin]-7-yl)-2-fluorobenzamide] | 56%
33 | 0.083 µM | C=CC(=O)N1[C@H](C)COC[C@H]1c1cc(Cl)nc(-c2ccnc(N)n2)c1 (single isomer, unassigned) [Compound 144] | 86%
34 | 0.011 µM | C=CC(=O)N1[C@H](C)COC[C@H]1c1cc(Cl)nc(-c2ccnc(C(N)=O)c2)c1 (single isomer, unassigned) [Compound 145] | 90%
35 | 0.18 µM | C=CC(=O)N1CCOC[C@H]1c1cc(Cl)cc(-c2ncncn2)c1 (single isomer, unassigned) [Compound 147] | 74%
36 | 0.051 µM | C=CC(=O)N1CC(C)(C)OC[C@H]1c1cc(Cl)cc(-c2ccnc(N)n2)c1 (single isomer, unassigned) [Compound 148] | 93%
37 | 0.015 µM | C=CC(=O)N1CC(C)(C)OC[C@H]1c1cc(Cl)cc(-c2cc(N)ncn2)c1 (single isomer, unassigned) [Compound 149] | 95%
38 | 0.031 µM | C=CC(=O)N1CC(C)(C)OCC1c1cc(Cl)nc(-c2cc(N)ncn2)c1 (single isomer, unassigned) [Compound 150, 1-(5-(2-(6-aminopyrimidin-4-yl)-6-chloropyridin-4-yl)-2,2-dimethylmorpholino)prop-2-en-1-one] | 97%
39 | 0.067 µM | C=CC(=O)N1CC(C)(C)OC[C@H]1c1cc(Cl)cc(-c2nccc(N)n2)c1 (single isomer, unassigned) [Compound 155] | 94%
40 | 0.105 µM | C=CC(=O)N1CC(C)(C)OC[C@H]1c1cc(Cl)cc(-c2ncc(N)cn2)c1 (single isomer, unassigned) [Compound 156] | 94%
41 | 0.012 µM | C=CC(=O)N1[C@H](CO)COC[C@H]1c1cc(Cl)nc(-c2ccn3ccnc3c2)c1 (single isomer, unassigned) [Compound 157] | 81%
42 | 2.72 µM | C=CC(=O)N1CCOCC12COc1c(-c3ccnc(N)n3)cc(Cl)cc12 (single isomer, unassigned) [Compound 158, 1-(7-(2-aminopyrimidin-4-yl)-5-chloro-2H-spiro[benzofuran-3,3′-morpholino]-4′-yl)prop-2-en-1-one] | 71%
43 | 0.32 µM | C=CC(=O)N1CC2(COC2)C1c1cc(Cl)cc(-c2ncnc(N)n2)c1 (single isomer, unassigned) [Compound 159, 1-(5-(3-(4-amino-1,3,5-triazin-2-yl)-5-chlorophenyl)-2-oxa-6-azaspiro[3,3]heptan-6-yl)prop-2-en-1-one] | 63%
